Here are results for six molecules from patent US4269842A, “Method for treating rhinoviral complaints” (Rhone-Poulenc Industries, priority 1979, dated 1981).

One series is described as follows: in vitro. The format is cell-based. Conditions: human, mcr-5 fibroblasts.
In series [1] the test system is Rhinovirus type 1 B (R 1112 strain). Nature of the series: Inhibition of cytopathogenic effect of rhinovirus type 1 B in human fibroblast cultures. Format: cell-based, human rhinovirus type 1 B. Conditions: Enterovirus, human fibroblasts, 37° C., 3-4 days, prevention of cytopathogenic effect, read-out: Minimum inhibitory concentration, Rhinovirus type 1 B. Here is the method: (§1) The type 1 A (R 2060 strain) and type 1 B (R 1112 strain) human rhinoviruses have the property of forming foci of necrosis (cytopathogeniceffect) on single-layer cell cultures. The compounds of the formula (I), which prevent the formation of these foci, have been selected as active substances.
(§2) Decreasing concentrations of the same solution or suspension of the compound under test are added to fresh identical cell cultures, the highest concentration being the maximum non-cytotoxic concentration. About one hour after the compounds have been added, the cultures are inoculated with 0.2 cm^3 of a suitably diluted suspension of virus (in isotonic phosphate buffer), which is capable of destroying about 75% of cells (cytopathogenic effect). 5 Control cultures (without test compound) are also inoculated. All the cultures are then incubated at 37° C. in a "roller" tissue culture apparatus at the same time as 2 control cultures (without test compound or virus) which have received 0.2 cm^3 of isotonic phosphate buffer. 3-4 Days after the start of the experiment, the cytopathogenic effect of the virus is examined under a microscope. The active compounds are those which have prevented the appearance of the cytopathogenic effect, and those which have inhibited it by at least 50% are considered to be partially active.
(In general: Damage to the host cells serves as the signal in cytopathic effect assays.)

The subject of series [2] is Rhinovirus type 1 A (R 2060 strain). Kind of series: Inhibition of cytopathogenic effect of rhinovirus type 1 A in human fibroblast cultures. Conditions: Enterovirus, 37° C., 3-4 days; for inhibition at 15 µg/mL: Fibroblast, at 15 μg/cm^3, human fibroblasts, read-out: Inhibition of cytopathogenic effect, Rhinovirus type 1 A (printed in minimum inhibitory concentration column); for MIC: human fibroblasts, prevention of cytopathogenic effect, read-out: Minimum inhibitory concentration, Rhinovirus type 1 A. Format: cell-based, human rhinovirus type 1 A. Here is the method:
as §1, §2

Converted amounts (≈) assume the structure as drawn.

For the molecule `Clc1ncccc1N=C1SC[C@@H]2Cc3ccccc3CN12` [Compound 2, (S)-3-[(2-chloropyrid-3-yl)-imino]-1,5,10,10a-tetrahydrothiazolo[3,4-b]isoquinoline], in “in vitro”, the MNTC is 15 µg/mL. Moreover, in series [1], the MIC is 0.016 mg/L (≈ 0.0507 µM). Moreover, the inhibition at 15 µg/mL in series [2] was ≥ 50%.

For the molecule `Cc1cc2c(N=C3SC[C@@H]4Cc5ccccc5CN34)cccc2cn1` [Compound 6, (S)-3-(3-methylisoquinol-5-yl)-imino-1,5,10,10a-tetrahydrothiazolo[3,4-b]isoquinoline], the MNTC in “in vitro” was found to be 30 µg/mL. In addition, the MIC in series [1] and in series [2] was 1.5 mg/L (≈ 4.34 µM) throughout.

Regarding `Fc1ncccc1N=C1SC[C@@H]2Cc3ccccc3CN12` [Compound 3, (S)-3-[(2-fluoropyrid-3-yl)-imino]-1,5,10,10a-tetrahydrothiazolo[3,4-b]-isoquinoline], the MNTC in the series “in vitro” was determined as 15 µg/mL. In addition, the MIC in series [1] came to 0.016 mg/L (≈ 0.0534 µM); in series [2], 15 mg/L (≈ 50.1 µM).

With `c1ccc2c(c1)C[C@H]1CSC(=Nc3cccc4cnccc34)N1C2` [Compound 5], in the series “in vitro”, the MNTC is > 60 µg/mL. The MIC in series [1] and in series [2] was 0.7 mg/L (≈ 2.11 µM) in each case.

Molecule `COc1ncccc1N=C1SC[C@@H]2Cc3ccccc3CN12` [Compound 4, (S)-3-[(2-methoxypyrid-3-yl)-imino]-1,5,10,10a-tetrahydrothiazolo[3,4-b]isoquinoline] yielded an MNTC in “in vitro” of 15 µg/mL. The MIC in series [1] was found to be 1.5 mg/L (≈ 4.82 µM). In series [2], the inhibition at 15 µg/mL was ≥ 50%.

Take `c1cncc(N=C2SC[C@@H]3Cc4ccccc4CN23)c1` [Compound 1]: the MNTC in “in vitro” is > 30 µg/mL. Besides, the values for the MIC in series [1] and in series [2] were 0.15 mg/L (≈ 0.533 µM) and 15 mg/L (≈ 53.3 µM), respectively.
